Consider 24 compounds from patent US20240376076A1, “INHIBITORS TARGETING UBIQUITIN SPECIFIC PROTEASE 7 (USP7)” (Dana-Farber Cancer Institute, Inc., priority 2021, published 2024).

pIC50: −log10 of the molar value. Bounds are passed on as bounds.

Data set [1] concerns the target T1, USP7, Active human recombinant protein (Homo sapiens, UniProt Q93009).
T1 construct: purchased CP Lot; 20200225001
Description: USP7 assay (Ubiquitin-Rhodamine 110 enzymatic assay). Type of data set: biochemical. The conditions noted are these: read-out: IC50. An outline of the steps: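 Kinetic 20-min fluorescence read (485/535 nm) of ubiquitin-rhodamine 110 (190 nM final) cleavage by 0.05 nM USP7 gave slopes. Compounds, 10 concentrations in 3-fold steps, had 15 min RT preincubation with enzyme first. Inhibition relative to max (enzyme+substrate) and min (substrate only) signals, fitted to IC50.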

The nature of data set [2]: mouse liver microsomal stability (Microsome Assay Protocol). The conditions noted are these: pH 7.4; mouse liver microsomes, NADPH, 37° C.; read-out: MLM t1/2, min. In kind it is in vitro ADME. An outline of the steps: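 Compound at 1.5 μM was mixed with 0.75 mg/mL mouse liver microsomes in 0.1 M potassium phosphate, 1.0 mM EDTA, pH 7.4, then started with NADPH from a 6 mM stock after 5 min preincubation at 37 °C. Samples taken at 0, 5, 15, 30 and 45 min were quenched with acetonitrile containing internal standard and analysed by LC/MS.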
Background: Liver microsomes are a subcellular fraction often used to study metabolism.

Data set [3] can be described thus: plasma stability (Plasma Assay Protocol). In kind it is in vitro ADME. As to conditions: 37° C., t1/2 extrapolated if >50% remaining at 60 min, ∞ if near 100% remaining. As to the method:
ND refers to not disclosed.
• 1. Preheated 0.05 M sodium phosphate and 0.07 M NaCl buffer, pH 7.4. Dissolved 14.505 g/L Na2HPO4·12H2O, 1.483 g/L NaH2PO4·2H2O and 4.095 g/L NaCl in deionized water. The basic solution was then titrated with the phosphoric acid to pH 7.40. Stored in fridge up to 7 days. Checked pH on the day of experiment and adjust if outside specification of 7.4+/−0.1. • 2. Plasma preparation: • Thawed frozen plasma by placing at 37° C. quickly. Centrifuged plasma at 3,000 rpm for 8 minutes to remove clots, pipetted and pooled the supernatant as the plasma to be used in the experiment. Checked and recorded the pH of the plasma. Only used plasma within the range of pH 7.4 to pH 8. If higher than pH 8, discarded the plasma. By using a 5% CO2 incubator and PBS buffer, a pH of 7.4 was reached after the 4 hour equilibrium dialysis time. Put the plasma on ice until used. • 3. Tested compounds and reference compounds spiking solution: • 0.5 mM test compounds spiking solution A: Added 10 μL of 10 mM test compounds stock solution to 190 μL DMSO. • 0.02 mM spiking solution B: Added 40 μL of spiking solution A to 960 μL of […] Sodium phosphate buffer with 0.5% BSA.
Pre-warmed the plasma and spiking solution B at 37° C. for 5 min. Added 10 μL of pre-warmed spiking solution B into the wells designated for all the time points (5, 15, 30, 45, 60 min).
For 0-min, added 400 μL of acetonitrile (ACN) containing the internal standard (IS) to the wells of 0-min plate and then added 90 μL of plasma. Added 90 μL of pre-warmed plasma into the wells designated for the time points (0, 5, 15, 30, 45, 60 min), and started timing. At 5, 15, 30, 45, 60 min, added 400 μL of ACN containing IS to the wells of corresponding plates, respectively, to stop the reaction. After quenching, shook the plates at the vibrator (IKA, MTS 2/4) for 10 min (600 rpm/min) and then centrifuged at 5594 g for 15 min (Thermo Multifuge×3R). Transferred 50 μL of the supernatant from each well into a 96-well sample plate containing 50 μL of ultra pure water (Millipore ZMQS50F01) for LC/MS analysis.

T1 sequence (Q93009 whole entry): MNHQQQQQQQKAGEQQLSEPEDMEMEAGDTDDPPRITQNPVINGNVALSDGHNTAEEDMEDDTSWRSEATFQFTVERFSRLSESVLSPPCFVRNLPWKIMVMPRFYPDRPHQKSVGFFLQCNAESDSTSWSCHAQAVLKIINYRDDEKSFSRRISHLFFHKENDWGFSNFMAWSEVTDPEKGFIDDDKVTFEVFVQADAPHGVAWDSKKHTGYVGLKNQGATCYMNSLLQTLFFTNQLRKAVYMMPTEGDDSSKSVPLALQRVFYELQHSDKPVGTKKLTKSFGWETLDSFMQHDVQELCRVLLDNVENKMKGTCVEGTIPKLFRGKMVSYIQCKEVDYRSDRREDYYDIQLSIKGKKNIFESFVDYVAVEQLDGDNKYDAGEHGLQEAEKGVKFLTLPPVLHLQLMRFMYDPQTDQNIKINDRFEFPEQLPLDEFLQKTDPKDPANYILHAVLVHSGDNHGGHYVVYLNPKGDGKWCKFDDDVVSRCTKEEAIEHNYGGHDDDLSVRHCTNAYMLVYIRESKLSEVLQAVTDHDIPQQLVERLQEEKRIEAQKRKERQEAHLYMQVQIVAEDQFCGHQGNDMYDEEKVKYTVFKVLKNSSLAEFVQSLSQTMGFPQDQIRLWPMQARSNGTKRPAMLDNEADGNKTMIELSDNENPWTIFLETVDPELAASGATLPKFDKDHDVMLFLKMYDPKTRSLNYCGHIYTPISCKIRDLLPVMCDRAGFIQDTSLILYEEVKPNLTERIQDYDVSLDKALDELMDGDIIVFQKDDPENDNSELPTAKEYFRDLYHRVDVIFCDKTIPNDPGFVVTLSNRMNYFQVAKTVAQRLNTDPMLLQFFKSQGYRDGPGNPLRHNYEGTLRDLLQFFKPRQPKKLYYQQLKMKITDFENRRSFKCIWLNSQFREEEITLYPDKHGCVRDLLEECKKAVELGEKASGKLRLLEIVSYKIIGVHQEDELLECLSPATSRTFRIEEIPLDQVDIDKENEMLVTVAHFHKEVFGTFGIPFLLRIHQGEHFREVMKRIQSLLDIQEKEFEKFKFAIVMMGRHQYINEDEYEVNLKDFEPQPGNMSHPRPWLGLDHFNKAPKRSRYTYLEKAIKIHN

The term pIC50 denotes the negative decadic logarithm of the IC50, by convention in mol/L. `C=CS(=O)(=O)Nc1ccccc1-c1ccc(C(=O)N2CCC(O)(Cn3cnc4cc(NC(=O)CCN5CCN(C)CC5)ccc4c3=O)CC2)cc1` [Compound 23, N-(3-((4-hydroxy-1-(2′-(vinylsulfonamido)-[1,1′-biphenyl]-4-carbonyl)piperidin-4-yl)methyl)-4-oxo-3,4-dihydroquinazolin-7-yl)-3-(4-methylpiperazin-1-yl)propanamide]: the negative logarithm of the IC50 (pIC50) in data set [1] was 7.00 to 7.70. Moreover, in data set [2], the half-life at 1 µM came out at 49.3 min. In addition, the half-life at 2 µM in data set [3] was 10.5 min.

Take `CN(C)CCC(=O)Nc1ccc2c(=O)n(CC3(O)CCN(C(=O)C(CCCNC(=O)c4ccc5c(Cl)c6c(nc5c4)C4CCC6C4)Cc4ccccc4)CC3)cnc2c1` (stereo not shown) [Compound 91]: in data set [1], the negative-log IC50 (pIC50) is 7.00 to 7.70. Besides, the half-life at 1 µM in data set [2] worked out at 2.97 min. The half-life at 2 µM in data set [3] is 335 min.

For `C=CS(=O)(=O)Nc1ccccc1N1CCC(C(=O)N2CCC(O)(Cn3cnc4cc(NC(=O)CCN5CCN(C)CC5)ccc4c3=O)CC2)[C@H](c2ccccc2)C1` (stereo partly shown) [Compound 93], the negative logarithm of the IC50 (pIC50) in data set [1] was above 7.70. The half-life at 1 µM in data set [2] is 14.7 min. The half-life at 2 µM in data set [3] is 10.3 min.

Regarding `CN(C)CCCOc1ccc2c(=O)n(CC3(O)CCN(C(=O)[C@@H](CCCNC(=O)c4ccc5c(Cl)c6c(nc5c4)CCCC6)Cn4ccc(F)n4)CC3)cnc2c1`, the half-life at 1 µM in data set [2] came to 6.96 min. In data set [3], the half-life at 2 µM was 127 min.

Take `CN(C)CCC(=O)Nc1ccc2c(=O)n(CC3(O)CCN(C(=O)C(CCCNC(=O)c4ccc5c(Cl)ccnc5c4)Cc4ccccc4)CC3)cnc2c1` (stereo not shown) [Compound 62]: in data set [1], the pIC50 was 7.00 to 7.70. Also, in data set [2], the half-life at 1 µM amounted to 12.3 min. In addition, in data set [3], the half-life at 2 µM was 194 min.

Turning to `CN(C)CCCOc1ccc2c(=O)n(CC3(O)CCN(C(=O)[C@H](CCCNC(=O)c4ccc5c(Cl)c(C(N)=O)cnc5c4)Cc4ccccc4)CC3)cnc2c1`, in data set [1], the negative logarithm of the IC50 (pIC50) is above 7.70. Also, the half-life at 1 µM in data set [2] was found to be 46.6 min. In addition, in data set [3], the half-life at 2 µM was 112 min.

On to `CCc1cc(Cl)c2ccc(C(=O)NCCCC(Cc3ccccc3)C(=O)N3CCC(O)(Cn4cnc5cc(NC(=O)CCN(C)C)ccc5c4=O)CC3)cc2n1` (stereo not shown) [Compound 79], for which the negative logarithm of the IC50 (pIC50) in data set [1] is 7.00 to 7.70. The half-life at 1 µM in data set [2] was determined as 10.5 min. Moreover, in data set [3], the half-life at 2 µM is 234 min.

Regarding `CN(C)CCCOc1ccc2c(=O)n(CC3(O)CCN(C(=O)C(CCCNC(=O)c4ccc5c(Cl)c(C(N)=O)cnc5c4)Cn4ccc(F)n4)CC3)cnc2c1` (stereo not shown), the negative-log IC50 (pIC50) in data set [1] is above 7.70. Moreover, the half-life at 1 µM in data set [2] was 131 min. For the same compound, the half-life at 2 µM in data set [3] was 85.9 min.

In the case of `CN(C)C1CCN(c2ccc3c(=O)n(CC4(O)CCN(C(=O)[C@H](CCCNC(=O)c5ccc6c(Cl)cc(C7CC7)nc6c5)Cc5ccccc5)CC4)cnc3c2)CC1` [Compound 123], the pIC50 in data set [1] is above 7.70. Also, the half-life at 1 µM in data set [2] is 24.3 min. Also, the half-life at 2 µM in data set [3] is 178 min.

Take `CN(C)CCC(=O)Nc1ccc2c(=O)n(CC3(O)CCN(C(=O)C(CCCC(=O)Nc4ccc5c(Cl)ccnc5c4)Cc4ccccc4)CC3)cnc2c1` (stereo not shown) [Compound 78]: the pIC50 in data set [1] was above 7.70. In addition, in data set [2], the half-life at 1 µM came to 14.6 min. For the same compound, in data set [3], the half-life at 2 µM was 77.3 min.

Turning to `CN(C)CCC(=O)Nc1ccc2c(=O)n(CC3(O)CCN(C(=O)C(CCCNC(=O)c4ccc5c(F)ccnc5c4)Cc4ccccc4)CC3)cnc2c1` (stereo not shown) [Compound 87], the pIC50 in data set [1] was above 7.70. Also, the half-life at 1 µM in data set [2] turned out to be 23.2 min. Besides, the half-life at 2 µM in data set [3] is 60.8 min.

On to `CN(C)CCC(=O)Nc1ccc2c(=O)n(CC3(O)CCN(C(=O)C(CCCNC(=O)N4CCc5c(Cl)ccnc5C4)Cc4ccccc4)CC3)cnc2c1` (stereo not shown) [Compound 43], for which, in data set [1], the pIC50 is 7.00 to 7.70. For the same compound, the half-life at 1 µM in data set [2] was determined as 8.3 min. In addition, the half-life at 2 µM in data set [3] is 186 min.

As for `CN(C)CCCOc1ccc2c(=O)n(CC3(O)CCN(C(=O)[C@@H](CCCNC(=O)c4ccc5c(Cl)c(C(N)=O)cnc5c4)Cn4ccc(F)n4)CC3)cnc2c1`, the negative logarithm of the IC50 (pIC50) in data set [1] is above 7.70. For the same compound, in data set [2], the half-life at 1 µM was 223 min. The half-life at 2 µM in data set [3] was 85.9 min.

For `CN(C)CCOc1ccc2c(=O)n(CC3(O)CCN(C(=O)[C@H](CCCNC(=O)c4ccc5c(Cl)cc(C6CC6)nc5c4)Cc4ccccc4)CC3)cnc2c1` [Compound 117], the pIC50 in data set [1] is 7.00 to 7.70. The half-life at 1 µM in data set [2] was 20.3 min. Besides, the “Plasma t1/2, min” value in data set [3] is given as “∞*”.

`CN1CCN(CCC(=O)Nc2ccc3c(=O)n(CC4(O)CCN(C(=O)[C@@H](CCCNC(=O)c5ccc6c(Cl)cc(-c7ccc(F)cc7)nc6c5)Cc5ccccc5)CC4)cnc3c2)CC1` [Compound 5, (S)—N-(4-benzyl-5-(4-hydroxy-4-((7-(3-(4-methylpiperazin-1-yl)propanamido)-4-oxoquinazolin-3(4H)-yl)methyl)piperidin-1-yl)-5-oxopentyl)-4-chloro-2-(4-fluorophenyl)quinoline-7-carboxamide]: the negative-log IC50 (pIC50) in data set [1] was 6.00 to 7.00. For the same compound, in data set [2], the half-life at 1 µM came to 18 min. In addition, the half-life at 2 µM in data set [3] was 320 min.

In the case of `CN(C)CCC(=O)Nc1ccc2c(=O)n(CC3(O)CCN(C(=O)[C@H](CCCNC(=O)c4ccc5c(Cl)c6c(nc5c4)CCC6)Cc4ccccc4)CC3)cnc2c1` [Compound 114], in data set [1], the pIC50 is above 7.70. Moreover, in data set [2], the half-life at 1 µM came to 4.13 min. For the same compound, the half-life at 2 µM in data set [3] was 702 min.

`CN(C)CCCOc1ccc2c(=O)n(CC3(O)CCN(C(=O)C(CCCNC(=O)c4ccc5c(Cl)cc(C6CC6)nc5c4)Cc4ccccc4)CC3)cnc2c1` (stereo not shown) [Compound 116]: the pIC50 in data set [1] is above 7.70. Further, the half-life at 1 µM in data set [2] amounted to 27.1 min. Moreover, the “Plasma t1/2, min” value in data set [3] was “∞*”.

Turning to `CN(C)CCCOc1ccc2c(=O)n(CC3(O)CCN(C(=O)C(CCCNC(=O)c4ccc5c(Cl)c6c(nc5c4)CCCC6)Cn4ccc(F)n4)CC3)cnc2c1` (stereo not shown), the pIC50 in data set [1] is above 7.70. Also, the half-life at 1 µM in data set [2] turned out to be 2.46 min. In addition, the half-life at 2 µM in data set [3] is 396 min.

`CN(C)CCC(=O)Nc1ccc2c(=O)n(CC3(O)CCN(C(=O)C4CCN(CCNC(=O)c5ccc6c(Cl)ccnc6c5)C[C@H]4c4ccccc4)CC3)cnc2c1` (stereo partly shown) [Compound 73]: the negative-log IC50 (pIC50) in data set [1] is 7.00 to 7.70. Moreover, the half-life at 1 µM in data set [2] was determined as 46.8 min. The half-life at 2 µM in data set [3] is 191 min.

On to `O=C(CCN1CCNCC1)Nc1ccc2c(=O)n(CC3(O)CCN(C(=O)C(CCCNC(=O)c4ccc5c(Cl)ccnc5c4)Cc4ccccc4)CC3)cnc2c1` (stereo not shown) [Compound 61, N-(4-benzyl-5-(4-hydroxy-4-((4-oxo-7-(3-(piperazin-1-yl)propanamido)quinazolin-3(4H)-yl)methyl)piperidin-1-yl)-5-oxopentyl)-4-chloroquinoline-7-carboxamide], for which the pIC50 in data set [1] was 7.00 to 7.70. Moreover, the half-life at 1 µM in data set [2] came out at 28.4 min. In addition, in data set [3], the half-life at 2 µM is 193 min.

Take `CN(C)CCC(=O)Nc1ccc2c(=O)n(CC3(O)CCN(C(=O)C(CCc4ncc(-c5ccc6c(Cl)ccnc6c5)o4)Cc4ccccc4)CC3)cnc2c1` (stereo not shown) [Compound 77]: the negative logarithm of the IC50 (pIC50) in data set [1] was 7.00 to 7.70. Besides, in data set [2], the half-life at 1 µM was 1.73 min. Further, the half-life at 2 µM in data set [3] is 161 min.

With `CN(C)CCCOc1ccc2c(=O)n(CC3(O)CCN(C(=O)[C@H](Cc4ccccc4)N(C)CCNC(=O)c4ccc5c(Cl)c(C(N)=O)cnc5c4)CC3)cnc2c1`, in data set [1], the pIC50 was below 6.00. Moreover, the half-life at 1 µM in data set [2] was found to be 101 min. Besides, in data set [3], the half-life at 2 µM was 149 min.

Turning to `CN1CCC(OCCOc2ccc3c(=O)n(CC4(O)CCN(C(=O)[C@H](CCCNC(=O)c5ccc6c(Cl)cc(C7CC7)nc6c5)Cc5ccccc5)CC4)cnc3c2)CC1` [Compound 132], the negative logarithm of the IC50 (pIC50) in data set [1] was 7.00 to 7.70. The half-life at 1 µM in data set [2] was found to be 6.96 min. Besides, in data set [3], the “Plasma t1/2, min” value is listed as “∞*”.

As for `CN1CCN(CCC(=O)Nc2ccc3c(=O)n(CC4(O)CCN(C(=O)[C@@H](CCCNC(=O)c5ccc6c(Cl)ccnc6c5)Cc5ccccc5)CC4)cnc3c2)CC1` [Compound 59, (S)—N-(4-benzyl-5-(4-hydroxy-4-((7-(3-(4-methylpiperazin-1-yl)propanamido)-4-oxoquinazolin-3(4H)-yl)methyl)piperidin-1-yl)-5-oxopentyl)-4-chloroquinoline-7-carboxamide], the negative-log IC50 (pIC50) in data set [1] was 7.00 to 7.70. Besides, in data set [3], the half-life at 2 µM was 78.9 min.
